# According to US20180214449A1, “CANCER THERAPY USING JAK INHIBITOR IN COMBINATION WITH MAPK INHIBITORS” (UBRX, INC., priority 2015, published 2018):
# Legend:
# [1] = system: B-Raf inhibitor resistant cells A375 or Lu1205R; experiment: Growth in soft agar of B-Raf inhibitor resistant cells; assay type: cell-based, human; details: two weeks in soft agar
# Method: Melanoma cells A375 and Lu1205 were cultured in Dulbecco's modified Eagle's medium (DMEM) supplemented with 10% fetal bovine serum (FBS), and penicillin-streptomycin. The melanoma UACC cell lines (UACC91, UACC502, UACC612, UACC647, and UACC1113) were maintained in Rosewell Park Memorial Institute Medium (RPMI1640) supplemented with 10% FBS and penicillin-streptomycin.
# [2] = system: A375, Lu1205, and several UACC melanoma cell lines resistant to BRAF inhibitors or BRAF and MEK inhibitors; experiment: Example 2: growth in soft agar of resistant melanoma cells; assay type: cell-based, human; details: two weeks in soft agar, 0-10 μM
# Method: The cells are grown for two weeks in soft agar, in the presence of 0-10 μM of ruxolitinib (JAK1 inhibitor), dabrafenib (BRAF inhibitor), trametinib (MEK inhibitor) as single agents or in combination therapies, using a constant volume of inhibitor for all the conditions.
# [3] = system: melanoma patients; details: clinical trial data; cited from earlier work
# [4] = system: other protein tyrosine kinases; details: read-out: IC50s for other protein tyrosine kinases; units printed within the range (nM to μM); cited from earlier work
# [5] = system: mouse T-cell lymphoma cells; details: read-out: IC50, IL-2 and IL-4-dependent proliferation; cited from earlier work
# [6] = system: JAK1; details: cited from earlier work
# [7] = target: JAK2 (Homo sapiens, UniProt O60674); details: cited from earlier work
# Chain of JAK2 (O60674 whole entry, species assumed): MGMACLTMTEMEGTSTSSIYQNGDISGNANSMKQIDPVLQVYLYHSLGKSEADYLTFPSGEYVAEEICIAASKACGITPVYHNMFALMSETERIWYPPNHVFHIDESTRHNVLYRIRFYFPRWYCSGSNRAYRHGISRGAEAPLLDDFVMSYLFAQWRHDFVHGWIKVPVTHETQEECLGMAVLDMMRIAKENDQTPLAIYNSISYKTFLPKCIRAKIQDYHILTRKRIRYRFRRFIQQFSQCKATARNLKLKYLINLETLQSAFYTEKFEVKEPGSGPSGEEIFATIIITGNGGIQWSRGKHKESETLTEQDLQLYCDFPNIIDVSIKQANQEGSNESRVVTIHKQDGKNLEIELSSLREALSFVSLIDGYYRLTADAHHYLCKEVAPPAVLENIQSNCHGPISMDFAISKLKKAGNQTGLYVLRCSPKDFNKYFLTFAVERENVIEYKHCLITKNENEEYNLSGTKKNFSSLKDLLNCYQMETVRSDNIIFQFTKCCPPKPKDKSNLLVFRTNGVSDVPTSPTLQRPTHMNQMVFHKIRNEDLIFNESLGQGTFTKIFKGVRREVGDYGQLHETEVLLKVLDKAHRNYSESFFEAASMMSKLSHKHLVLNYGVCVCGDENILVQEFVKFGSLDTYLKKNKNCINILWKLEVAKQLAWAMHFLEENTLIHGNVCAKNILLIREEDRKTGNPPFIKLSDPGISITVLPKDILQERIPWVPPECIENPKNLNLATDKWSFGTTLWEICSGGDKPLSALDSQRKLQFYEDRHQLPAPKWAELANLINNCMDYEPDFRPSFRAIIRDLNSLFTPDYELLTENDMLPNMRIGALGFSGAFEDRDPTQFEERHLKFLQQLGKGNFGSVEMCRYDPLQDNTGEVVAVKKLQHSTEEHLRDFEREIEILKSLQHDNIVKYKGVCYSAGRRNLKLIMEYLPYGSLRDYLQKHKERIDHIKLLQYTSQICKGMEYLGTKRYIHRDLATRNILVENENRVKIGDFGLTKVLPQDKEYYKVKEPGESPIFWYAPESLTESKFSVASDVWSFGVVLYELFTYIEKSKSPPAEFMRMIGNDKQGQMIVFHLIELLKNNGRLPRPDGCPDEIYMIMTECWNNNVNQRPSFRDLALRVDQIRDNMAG
# [8] = system: UACC257; experiment: IC50 to B-Raf inhibitors in melanoma cell line; assay type: cell-based; details: Homo sapiens, UACC-257
# [9] = system: UACC558; experiment: IC50 to B-Raf inhibitors in melanoma cell line; assay type: cell-based; details: Homo sapiens
# [10] = system: UACC502; experiment: IC50 to B-Raf inhibitors in melanoma cell line; assay type: cell-based; details: Homo sapiens
# Method: (§1) Melanoma cells A375 and Lu1205 were cultured in Dulbecco's modified Eagle's medium (DMEM) supplemented with 10% fetal bovine serum (FBS), and penicillin-streptomycin. The melanoma UACC cell lines (UACC91, UACC502, UACC612, UACC647, and UACC1113) were maintained in Rosewell Park Memorial Institute Medium (RPMI1640) supplemented with 10% FBS and penicillin-streptomycin. In order to develop resistance to B-Raf inhibitor PLX-4032, the cells were grown with increasing concentrations of the inhibitor at each passage and eventually maintained in appropriate media containing either 5 μM (for A375 and Lu1205 cells) or 1 μM (for UACC cells) PLX-4032.
# (§2) Melanoma cell lines UACC91, UACC502, UACC612, UACC647, and UACC1113 were treated with B-Raf inhibitors PLX-4032 or PLX-4720, and the IC50 values were correlated with RNF125 expression levels. The RNF125 expression was determined using RNA-Sequencing (RNA-Seq) methods and expressed in fragments per kilobase per million reads unit (FPKM).
# [11] = system: UACC612; experiment: IC50 to B-Raf inhibitors in melanoma cell line; assay type: cell-based; details: Homo sapiens
# Method: as §1, §2
# [12] = system: UACC647; experiment: IC50 to B-Raf inhibitors in melanoma cell line; assay type: cell-based; details: Homo sapiens
# Method: as §1, §2
# [13] = system: UACC91; experiment: IC50 to B-Raf inhibitors in melanoma cell line; assay type: cell-based; details: Homo sapiens
# Method: as §1, §2
# [14] = system: UACC903; experiment: IC50 to B-Raf inhibitors in melanoma cell line; assay type: cell-based; details: Homo sapiens, UACC-903
# [15] = system: UACC1308; experiment: IC50 to B-Raf inhibitors in melanoma cell line; assay type: cell-based; details: Homo sapiens
# [16] = system: UACC2641; experiment: IC50 to B-Raf inhibitors in melanoma cell line; assay type: cell-based; details: Homo sapiens
# [17] = system: UACC3291; experiment: IC50 to B-Raf inhibitors in melanoma cell line; assay type: cell-based; details: Homo sapiens
SMILES,growth in soft agar [1],IC50 [8],IC50 [9],IC50 [10],IC50 [11],IC50 [12],IC50 [13],IC50 [14],IC50 [15],IC50 [16],IC50 [17],other results
COc1cc2ncnc(Nc3ccc(F)c(Cl)c3)c2cc1OCCCN1CCOCC1 [Gefitinib],did not inhibit growth,–,–,–,–,–,–,–,–,–,–,–
CC(C)(C)c1nc(-c2cccc(NS(=O)(=O)c3c(F)cccc3F)c2F)c(-c2ccnc(N)n2)s1 [dabrafenib],–,–,–,–,–,–,–,–,–,–,–,growth of the melanoma cells in soft agar [2]: does not block the growth; time until resistance occurs [3]: 6 to 7 months
CC(C)(C)c1nc2c3cc[nH]c(=O)c3c3cc(F)ccc3c2[nH]1 [Pyridone 6],–,–,–,–,–,–,–,–,–,–,–,IC50 [4]: ≥ 130 nM; IC50 [5]: 50 to 100 nM
Cc1cc(Nc2nc(N[C@@H](C)c3ncc(F)cn3)ncc2Cl)n[nH]1 [AZD1480],did not inhibit growth,–,–,–,–,–,–,–,–,–,–,IC50 [6]: 1.3 nM; IC50 [7]: 0.26 nM
"CCCS(=O)(=O)Nc1ccc(F)c(C(=O)c2c[nH]c3ncc(-c4ccc(Cl)cc4)cc23)c1F [PLX-4032, vemurafenib]",–,150 nM,690 nM,550 nM,3780 nM,3370 nM,301 nM,250 nM,60 nM,5880 nM,60 nM,–
CCCS(=O)(=O)Nc1ccc(F)c(C(=O)c2c[nH]c3ncc(Cl)cc23)c1F [PLX-4702],–,140 nM,420 nM,780 nM,5480 nM,6720 nM,532 nM,250 nM,90 nM,4590 nM,90 nM,–
